From patent US7504420B2, “Compounds which inhibit beta-secretase activity and methods of use” (CoMentis, Inc., priority 2005, dated 2009) come the findings set out here.

In experiment [1] the test system is Aβ production in Chinese hamster ovary cells that over-express human APP695 with the London and Swedish mutations. In words: Cellular Aβ IC50 determination (Aβ40 sandwich ELISA). The settings on record: Cricetulus griseus, CHO, 24 h, read-out: Cell, Aβ40, CHO cells over-expressing human APP695 (London and Swedish mutations), 24 h. (ELISA stands for enzyme-linked immunosorbent assay.)

Another experiment deals with cathepsin D (Homo sapiens, UniProt P07339). Briefly: Inhibition of cathepsin D catalytic activity (Ki). The settings on record: pH 4.0, 37° C., read-out: CDK. The format is biochemical. As to the method:
A substrate peptide NH3-ELDLAVEFWHDR-CO2 (SEQ ID NO.:1) (used for inhibition assay of memapsin 2, memapsin 1, and cathepsin D) was dissolved at 2 mg/ml in DMSO and diluted 1:100 in 0.1 M sodium acetate, pH 4.0 just prior to assay. Inhibitor dissolved in DMSO was diluted into 0.1 M sodium acetate, pH 4.0 (1:100 dilution). A […] aliquot of the inhibitor solution in pH 4 buffer was combined with […] of 0.1 M sodium acetate containing 100-200 nM of memapsin 1, memapsin 2, or cathepsin D. Following a pre-incubation at 37° C., the proteolytic assay was initated by addition of […] of the substrate diluted into pH 4 buffer, and incubation continued at 37° C. Aliquots were removed at time intervals, and combined with an equal volume of MALDI-TOF matrix (α-hydroxycinnamic acid in acetone, 20 mg/ml) and immediately spotted in duplicate onto a stainless-steel MALDI sample plate. MALDI-TOF mass spectrometry was performed on a PE Biosystems Voyager DE instrument at the Molecular Biology Resource Center on campus. The instrument was operated at 25,000 accelerating volts in positive mode with a 150 ns delay. Ions with a mass-to-charge ratio (m/z) were detected in the range of 650-2000 atomic mass units. Data were analyzed by the Voyager Data Explorer module to obtain ion intensity data for mass species of substrates and corresponding products in a given mixture. Relative product formation was calculated as the ratio of signal intensity of the product to the sum of signal intensities of both product and the corresponding substrate. Relative product formed per unit time was obtained from non-linear regression analysis of the data representing the initial 15% formation of product using the model: 1−e^−kT, where k was the relative hydrolytic rate constant and T was time in seconds. Alternatively, relative hydrolytic rates were determined using a fluorogenic cleavage assay (Ermolieff, J. et al., Biochemistry, 39: 12450-12456 (2000)). Initial rates from either method were expressed relative to uninhibited controls and the inhibition constant Ki was determined by a non-linear fit to a tight-binding model of competitive inhibition (Bieth, J., Bayer-Symposium V: Proteinase Inhibitors, pp 463-469, Spinger-Varlag, Berlin (1994)). Results are shown in Table 1 above (M2K, CDK, and M1K columns represent, respectively, the K1 values obtained for memapsin 2, cathepsin D and memapsin 1).

The next experiment addresses memapsin 2 (Homo sapiens, UniProt P56817). In words: Inhibition of memapsin 2 catalytic activity (Ki). The settings on record: memapsin 2, pH 4, 37° C.; read-out: M2K. Type of experiment: biochemical. Put shortly: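 Run at 37 °C and pH 4: compound and enzyme pre-incubated 20 min before FS-2 fluorogenic substrate started hydrolysis,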

Chain of memapsin 2 (P56817 46-501): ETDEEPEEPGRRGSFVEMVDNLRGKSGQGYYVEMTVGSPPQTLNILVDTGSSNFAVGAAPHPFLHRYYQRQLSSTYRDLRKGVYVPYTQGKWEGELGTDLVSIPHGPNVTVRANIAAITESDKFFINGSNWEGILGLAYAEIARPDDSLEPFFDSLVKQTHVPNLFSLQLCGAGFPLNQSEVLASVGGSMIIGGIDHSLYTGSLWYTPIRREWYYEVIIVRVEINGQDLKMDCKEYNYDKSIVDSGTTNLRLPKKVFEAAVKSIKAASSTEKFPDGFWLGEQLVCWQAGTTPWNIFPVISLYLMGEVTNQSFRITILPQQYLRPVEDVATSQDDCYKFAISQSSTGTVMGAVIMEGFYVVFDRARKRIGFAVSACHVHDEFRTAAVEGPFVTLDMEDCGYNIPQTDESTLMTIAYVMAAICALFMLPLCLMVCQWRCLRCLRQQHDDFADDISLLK
Chain of cathepsin D (P07339 65-412, species assumed): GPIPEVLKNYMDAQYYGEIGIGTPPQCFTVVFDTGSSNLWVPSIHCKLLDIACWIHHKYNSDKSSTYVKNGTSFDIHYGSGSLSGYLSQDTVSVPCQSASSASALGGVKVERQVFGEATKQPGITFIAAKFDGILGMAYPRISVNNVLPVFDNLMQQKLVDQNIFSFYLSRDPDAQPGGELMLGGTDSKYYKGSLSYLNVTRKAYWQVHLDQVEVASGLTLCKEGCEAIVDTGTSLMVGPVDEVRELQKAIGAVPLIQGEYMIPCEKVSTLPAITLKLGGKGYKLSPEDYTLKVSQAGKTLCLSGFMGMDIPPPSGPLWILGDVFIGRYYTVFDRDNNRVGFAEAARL

For `CC(NC(=O)c1cc(C(=O)NC(Cc2ccccc2)C(O)CNCC2CCCN(C)C2)cc(N(C)S(C)(=O)=O)c1)c1ccccc1` (stereo not drawn) [N1-(3-hydroxy-4-((1-methylpiperidin-3-yl)methylamino)-1-phenylbutan-2-yl)-5-(N-methylmethylsulfonamido)-N3-(1-phenylethyl)isophthalamide], the IC50 in experiment [1] was greater than 5000 nM. Also, the Ki at cathepsin D and at memapsin 2 was greater than 501 nM each time.

As to `CCc1cncc(CNCC(O)C(Cc2ccccc2)NC(=O)c2cc(C(=O)NC(C)c3ccccc3)cc(N(C)S(C)(=O)=O)c2)c1` (stereo not drawn) [N1-(4-((5-ethylpyridin-3-yl)methylamino)-3-hydroxy-1-phenylbutan-2-yl)-5-(N-methylmethylsulfonamido)-N3-(1-phenylethyl)isophthalamide], in experiment [1], the IC50 was less than 1000 nM. The Ki on cathepsin D and at memapsin 2 was less than 300 nM throughout.

For `Cc1cc(CNCC(O)C(Cc2ccccc2)NC(=O)c2cc(C(=O)NC(C)c3ccccc3)cc(N(C)S(C)(=O)=O)c2)no1` (stereo not drawn) [N1-(3-hydroxy-4-((5-methylisoxazol-3-yl)methylamino)-1-phenylbutan-2-yl)-5-(N-methylmethylsulfonamido)-N3-(1-phenylethyl)isophthalamide], the IC50 in experiment [1] was less than 1000 nM. Also, the Ki on cathepsin D and on memapsin 2 was less than 300 nM throughout.

In the case of `Cc1csc(CN(C)C(=O)c2cccc(C(=O)NC(Cc3ccccc3)C(O)CNCc3cccc(OC(C)C)c3)c2)n1` (stereo not drawn) [N1-(3-hydroxy-4-(3-isopropoxybenzylamino)-1-phenylbutan-2-yl)-N3-methyl-N3-((4-methylthiazol-2-yl)methyl)isophthalamide], the IC50 in experiment [1] is less than 1000 nM. In addition, the Ki at cathepsin D and at memapsin 2 was less than 300 nM in each case.

With `COc1cccc(F)c1CNCC(O)C(Cc1ccccc1)NC(=O)c1cc(C(=O)NC(C)c2ccccc2)cc(N(C)S(C)(=O)=O)c1` (stereo not drawn) [N1-(4-(2-fluoro-6-methoxybenzylamino)-3-hydroxy-1-phenylbutan-2-yl)-5-(N-methylmethylsulfonamido)-N3-(1-phenylethyl)isophthalamide], the IC50 in experiment [1] was less than 1000 nM. Besides, the Ki on cathepsin D and at memapsin 2 was less than 300 nM in each case.

For `CC(NC(=O)c1cc(C(=O)NC(Cc2ccccc2)C(O)CNCCN2CCCC2)cc(N(C)S(C)(=O)=O)c1)c1ccccc1` (stereo not drawn) [N1-(3-hydroxy-1-phenyl-4-(2-(pyrrolidin-1-yl)ethylamino)butan-2-yl)-5-(N-methylmethylsulfonamido)-N3-(1-phenylethyl)isophthalamide], the IC50 in experiment [1] was greater than 5000 nM. Further, the Ki at cathepsin D and on memapsin 2 was greater than 501 nM in each case.

On to `CC(NC(=O)c1cc(C(=O)NC(Cc2ccccc2)C(O)CNCc2cccc(C(F)(F)F)c2)cc(N(C)S(C)(=O)=O)c1)c1ccccc1` (stereo not drawn) [N1-(3-hydroxy-1-phenyl-4-(3-(trifluoromethyl)benzylamino)butan-2-yl)-5-(N-methylmethylsulfonamido)-N3-(1-phenylethyl)isophthalamide], for which the IC50 in experiment [1] was less than 1000 nM. Further, the Ki at cathepsin D and on memapsin 2 was less than 300 nM each time.

For the compound `CCc1cccc(CNCC(O)C(Cc2ccccc2)NC(=O)c2cccc(C(=O)N(C)Cc3nc(C)cs3)c2)c1` (stereo not drawn) [N1-(4-(3-ethylbenzylamino)-3-hydroxy-1-phenylbutan-2-yl)-N3-methyl-N3-((4-methylthiazol-2-yl)methyl)isophthalamide], the IC50 in experiment [1] is less than 1000 nM. In addition, the Ki on cathepsin D and on memapsin 2 was less than 300 nM in each case.

In the case of `CC(NC(=O)c1cc(C(=O)NC(Cc2ccccc2)C(O)CNCCN2CCCCC2)cc(N(C)S(C)(=O)=O)c1)c1ccccc1` (stereo not drawn) [N1-(3-hydroxy-1-phenyl-4-(2-(piperidin-1-yl)ethylamino)butan-2-yl)-5-(N-methylmethylsulfonamido)-N3-(1-phenylethyl)isophthalamide], in experiment [1], the IC50 is greater than 5000 nM. Moreover, the Ki at cathepsin D and on memapsin 2 was greater than 501 nM throughout.

Consider `Cc1cncc(CNCC(O)C(Cc2ccccc2)NC(=O)c2cccc(C(=O)N(C)Cc3nc(C)cs3)c2)c1` (stereo not drawn) [N1-(3-hydroxy-4-((5-methylpyridin-3-yl)methylamino)-1-phenylbutan-2-yl)-N3-methyl-N3-((4-methylthiazol-2-yl)methyl)isophthalamide], for which the IC50 in experiment [1] was less than 1000 nM. Further, the Ki on cathepsin D and on memapsin 2 was less than 300 nM in each case.

With `COc1cccc(CNCC(O)C(Cc2ccccc2)NC(=O)c2cc(C(=O)NC(C)c3ccccc3)c(F)cc2F)c1` (stereo not drawn) [4,6-difluoro-N1-(3-hydroxy-4-(3-methoxybenzylamino)-1-phenylbutan-2-yl)-N3-(1-phenylethyl)isophthalamide], the IC50 in experiment [1] was 1000 to 5000 nM. For the same compound, the Ki at cathepsin D was less than 300 nM; on memapsin 2, greater than 501 nM.

Consider `COc1ccc(CCNCC(O)C(Cc2ccccc2)NC(=O)c2cc(C(=O)NC(C)c3ccccc3)cc(N(C)S(C)(=O)=O)c2)cc1` (stereo not drawn) [N1-(3-hydroxy-4-(4-methoxyphenethylamino)-1-phenylbutan-2-yl)-5-(N-methylmethylsulfonamido)-N3-(1-phenylethyl)isophthalamide], for which the IC50 in experiment [1] was less than 1000 nM. Further, the Ki at cathepsin D and on memapsin 2 was less than 300 nM in each case.

Regarding `COc1cccc(CNCC(O)C(Cc2ccccc2)NC(=O)c2cccc(C(=O)N(Cc3nc(C)cs3)N(C)C)c2)c1` (stereo not drawn) [3-(2,2-dimethyl-1-((4-methylthiazol-2-yl)methyl)hydrazinecarbonyl)-N-(3-hydroxy-4-(3-methoxybenzylamino)-1-phenylbutan-2-yl)benzamide], in experiment [1], the IC50 is greater than 5000 nM. Also, the Ki at cathepsin D and on memapsin 2 was greater than 501 nM each time.

For `CC(NC(=O)c1cc(C(=O)NC(Cc2ccccc2)C(O)CNCc2cccc(CN(C)C)c2)cc(N(C)S(C)(=O)=O)c1)c1ccccc1` (stereo not drawn) [N1-(4-(3-((dimethylamino)methyl)benzylamino)-3-hydroxy-1-phenylbutan-2-yl)-5-(N-methylmethylsulfonamido)-N3-(1-phenylethyl)isophthalamide], in experiment [1], the IC50 was less than 1000 nM. For the same compound, the Ki at cathepsin D was greater than 501 nM; on memapsin 2, less than 300 nM.

For the compound `CC(NC(=O)c1cc(C(=O)NC(Cc2ccccc2)C(O)CNCc2cncc(N(C)C)c2)cc(N(C)S(C)(=O)=O)c1)c1ccccc1` (stereo not drawn) [N1-(4-((5-(dimethylamino)pyridin-3-yl)methylamino)-3-hydroxy-1-phenylbutan-2-yl)-5-(N-methylmethylsulfonamido)-N3-(1-phenylethyl)isophthalamide], the IC50 in experiment [1] was less than 1000 nM. For the same compound, the values for the Ki at cathepsin D and at memapsin 2 were 301 to 500 nM and less than 300 nM, respectively.

For `Cc1cc(CNCC(O)C(Cc2ccccc2)NC(=O)c2cc(C(=O)NC(C)c3ccccc3)cc(N(C)S(C)(=O)=O)c2)on1` (stereo not drawn) [N1-(3-hydroxy-4-((3-methylisoxazol-5-yl)methylamino)-1-phenylbutan-2-yl)-5-(N-methylmethylsulfonamido)-N3-(1-phenylethyl)isophthalamide], the IC50 in experiment [1] is less than 1000 nM. For the same compound, the Ki at cathepsin D and at memapsin 2 was less than 300 nM throughout.

As to `Cc1csc(CN(C)C(=O)c2cccc(C(=O)NC(Cc3ccccc3)C(O)CNCc3cccc(CF)c3)c2)n1` (stereo not drawn) [N1-(4-(3-(fluoromethyl)benzylamino)-3-hydroxy-1-phenylbutan-2-yl)-N3-methyl-N3-((4-methylthiazol-2-yl)methyl)isophthalamide], the IC50 in experiment [1] is less than 1000 nM. Also, the Ki at cathepsin D and at memapsin 2 was less than 300 nM each time.

As for `CC(NC(=O)c1cc(C(=O)NC(Cc2ccccc2)C(O)CNCc2cccc(OC(F)F)c2)cc(N(C)S(C)(=O)=O)c1)c1ccccc1` (stereo not drawn) [N1-(4-(3-(difluoromethoxy)benzylamino)-3-hydroxy-1-phenylbutan-2-yl)-5-(N-methylmethylsulfonamido)-N3-(1-phenylethyl)isophthalamide], the IC50 in experiment [1] was less than 1000 nM. Moreover, the Ki on cathepsin D and on memapsin 2 was less than 300 nM throughout.

For `CC(NCC(O)C(Cc1ccccc1)NC(=O)c1cc(C(=O)NC(C)c2ccccc2)cc(N(C)S(C)(=O)=O)c1)c1cccnc1` (stereo not drawn) [N1-(3-hydroxy-1-phenyl-4-(1-(pyridin-3-yl)ethylamino)butan-2-yl)-5-(N-methylmethylsulfonamido)-N3-(1-phenylethyl)isophthalamide], in experiment [1], the IC50 was less than 1000 nM. In addition, the Ki at cathepsin D and at memapsin 2 was less than 300 nM each time.
